Measurements: ChEMBL document CHEMBL4118122, “Identification and biological evaluation of thiazole-based inverse agonists of RORγt” (Bioorg Med Chem Lett, 2018)
Values after ≈ are worked out from the molar mass of the structure shown.

Columns and labels:
Cytochrome P450 2D6 = Cytochrome P450 2D6 (Homo sapiens, UniProt P10635); experiment: Inhibition of CYP2D6 (unknown origin); format: ADME
[1] = Thermodynamic solubility of the compound in 30 mM phosphate buffer at 10 mM at pH 7 after 2 to 5 days by UV-HPLC analysis; format: physicochemical; conditions: read-out: Therm_solubility
[2] = Thermodynamic solubility of the compound in fasted state simulated intestinal […] after 2 to 5 days by UV-HPLC analysis; format: physicochemical; conditions: read-out: Therm_solubility
PXR (NR1I2) [3] = biological target: T1, PXR (NR1I2) (Homo sapiens, UniProt O75469); experiment: […] at PXR LBD (unknown origin) expressed in HEK293 cells […] at 10 uM after 16 hrs by luciferase reporter gene assay relative to rifampicin; format: ADME, cell-based; conditions: HEK293 cells expressing PXR LBD, read-out: Efficacy
T1 sequence (O75469 whole entry): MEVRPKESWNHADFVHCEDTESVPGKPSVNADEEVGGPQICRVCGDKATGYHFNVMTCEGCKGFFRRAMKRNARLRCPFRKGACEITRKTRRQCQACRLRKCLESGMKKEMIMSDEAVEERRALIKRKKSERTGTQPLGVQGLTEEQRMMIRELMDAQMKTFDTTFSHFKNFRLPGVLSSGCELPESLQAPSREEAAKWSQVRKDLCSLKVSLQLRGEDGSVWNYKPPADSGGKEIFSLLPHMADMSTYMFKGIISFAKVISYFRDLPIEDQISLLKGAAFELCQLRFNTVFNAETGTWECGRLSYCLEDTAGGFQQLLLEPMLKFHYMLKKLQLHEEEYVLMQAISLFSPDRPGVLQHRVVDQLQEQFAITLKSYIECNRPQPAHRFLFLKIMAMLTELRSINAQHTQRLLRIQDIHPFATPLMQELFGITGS

[4] = Tmax in Sprague-Dawley rat at 2.5 mg/kg, po; format: ADME, organism-based; conditions: in vivo
[5] = Cmax in Sprague-Dawley rat at 2.5 mg/kg, po; format: ADME, organism-based; design: dose 2.5 mg/kg, route oral; conditions: in vivo
[6] = Half life in human microsomes; format: ADME, Microsome
[7] = Initial plasma concentration in Sprague-Dawley rat at 0.5 mg/kg, iv; format: ADME, organism-based
[8] = Clearance in Sprague-Dawley rat at 0.5 mg/kg, iv; format: ADME, organism-based; conditions: in vivo
Cytochrome P450 2C19 = Cytochrome P450 2C19 (Homo sapiens, UniProt P33261); experiment: Inhibition of CYP2C19 (unknown origin); format: ADME
Cytochrome P450 2C9 = Cytochrome P450 2C9 (Homo sapiens, UniProt P11712); experiment: Inhibition of CYP2C9 (unknown origin); format: ADME
Cytochrome P450 1A2 = biological target: T2, Cytochrome P450 1A2 (Homo sapiens, UniProt P05177); experiment: Inhibition of CYP1A2 (unknown origin); format: ADME
T2 sequence (P05177 whole entry): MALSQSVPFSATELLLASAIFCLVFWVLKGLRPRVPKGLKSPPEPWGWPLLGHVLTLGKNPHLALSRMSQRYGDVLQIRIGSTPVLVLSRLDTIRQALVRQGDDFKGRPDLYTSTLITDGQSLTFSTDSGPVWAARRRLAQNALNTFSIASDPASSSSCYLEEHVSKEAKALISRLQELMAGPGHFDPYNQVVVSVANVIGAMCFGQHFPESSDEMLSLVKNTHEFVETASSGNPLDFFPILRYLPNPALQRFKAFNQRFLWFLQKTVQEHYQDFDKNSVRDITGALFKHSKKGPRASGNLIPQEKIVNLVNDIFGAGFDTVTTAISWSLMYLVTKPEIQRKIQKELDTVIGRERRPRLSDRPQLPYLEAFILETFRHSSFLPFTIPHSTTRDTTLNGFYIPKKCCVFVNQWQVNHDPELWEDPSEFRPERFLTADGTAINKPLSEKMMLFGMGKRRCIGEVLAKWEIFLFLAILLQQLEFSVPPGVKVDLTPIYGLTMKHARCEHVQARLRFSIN

[9] = Volume of distribution at steady state in Sprague-Dawley rat at 0.5 mg/kg, iv; format: ADME, organism-based; conditions: in vivo, read-out: Vdss
[10] = AUC (0 to infinity) in Sprague-Dawley rat at 0.5 mg/kg, iv; format: ADME, organism-based; design: dose 0.5 mg/kg, route intravenous, time infinity; conditions: Sprague-Dawley, in vivo
[11] = AUC (0 to infinity) in Sprague-Dawley rat at 2.5 mg/kg, po; format: ADME, organism-based; design: dose 2.5 mg/kg, time infinity, route oral; conditions: in vivo
[12] = Half life in rat microsomes; format: ADME, Microsome
PXR (NR1I2) [13] = biological target: T1, PXR (NR1I2); experiment: […] at PXR LBD (unknown origin) expressed in HEK293 cells […] at 1 uM after 16 hrs by luciferase reporter gene assay relative to rifampicin; format: ADME, cell-based; conditions: HEK293 cells expressing PXR LBD, read-out: Efficacy
[14] = Oral bioavailability in Sprague-Dawley rat at 2.5 mg/kg; format: ADME, organism-based; conditions: in vivo
Cytochrome P450 2C8 = biological target: T3, Cytochrome P450 2C8 (Homo sapiens, UniProt P10632); experiment: Inhibition of CYP2C8 (unknown origin); format: ADME
T3 sequence (P10632 whole entry): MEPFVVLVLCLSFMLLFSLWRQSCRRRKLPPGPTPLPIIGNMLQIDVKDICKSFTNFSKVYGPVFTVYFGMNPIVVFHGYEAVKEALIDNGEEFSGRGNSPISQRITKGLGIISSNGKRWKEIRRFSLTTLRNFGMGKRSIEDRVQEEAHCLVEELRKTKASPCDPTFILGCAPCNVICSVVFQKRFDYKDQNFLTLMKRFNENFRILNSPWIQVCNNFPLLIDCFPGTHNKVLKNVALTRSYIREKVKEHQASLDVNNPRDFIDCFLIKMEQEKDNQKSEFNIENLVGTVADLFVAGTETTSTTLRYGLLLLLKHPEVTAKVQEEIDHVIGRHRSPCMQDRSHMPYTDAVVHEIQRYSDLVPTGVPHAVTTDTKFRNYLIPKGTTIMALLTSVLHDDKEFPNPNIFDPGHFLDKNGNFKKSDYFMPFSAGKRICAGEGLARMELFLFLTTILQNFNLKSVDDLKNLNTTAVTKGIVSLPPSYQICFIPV

[15] = Half life in Sprague-Dawley rat at 0.5 mg/kg, iv; format: ADME, organism-based; conditions: in vivo
Cytochrome P450 3A4 = Cytochrome P450 3A4 (Homo sapiens, UniProt P08684); experiment: Inhibition of CYP3A4 (unknown origin); format: ADME
[16] = Terminal half life in Sprague-Dawley rat at 2.5 mg/kg, po; format: ADME, organism-based; conditions: in vivo, read-out: beta t1/2 (converted)
[17] = biological target: T4, Nuclear receptor ROR-beta (Homo sapiens, UniProt Q92753); experiment: Binding affinity to recombinant human RORbeta LBD (201 to 452 residues) expressed in Escherichia coli BL21 (DE3) GOLD by 1,8-ANS dye-based thermofluor assay
T4 sequence (Q92753 whole entry): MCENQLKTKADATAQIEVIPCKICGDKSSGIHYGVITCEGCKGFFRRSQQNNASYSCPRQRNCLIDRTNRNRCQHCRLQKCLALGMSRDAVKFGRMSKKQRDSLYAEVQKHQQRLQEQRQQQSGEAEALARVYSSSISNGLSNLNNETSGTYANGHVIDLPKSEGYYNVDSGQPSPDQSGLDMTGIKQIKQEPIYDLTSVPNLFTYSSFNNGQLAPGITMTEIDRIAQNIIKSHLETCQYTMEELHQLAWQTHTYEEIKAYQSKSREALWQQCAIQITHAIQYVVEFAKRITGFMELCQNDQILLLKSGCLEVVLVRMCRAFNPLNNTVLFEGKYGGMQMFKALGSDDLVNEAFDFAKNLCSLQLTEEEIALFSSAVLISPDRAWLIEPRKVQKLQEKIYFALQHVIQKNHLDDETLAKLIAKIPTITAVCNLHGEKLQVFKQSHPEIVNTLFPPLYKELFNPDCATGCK

[18] = Initial plasma concentration in Sprague-Dawley rat at 1 mg/kg, iv; format: ADME, organism-based
[19] = Tmax in Sprague-Dawley rat at 5 mg/kg, po; format: ADME, organism-based; conditions: in vivo
[20] = Cmax in Sprague-Dawley rat at 5 mg/kg, po; format: ADME, organism-based; design: dose 5 mg/kg, route oral; conditions: in vivo
[21] = Oral bioavailability in Sprague-Dawley rat at 5 mg/kg; format: ADME, organism-based; conditions: in vivo
[22] = Clearance in Sprague-Dawley rat at 1 mg/kg, iv; format: ADME, organism-based; conditions: in vivo
[23] = Terminal half life in Sprague-Dawley rat at 5 mg/kg, po; format: ADME, organism-based; conditions: in vivo, read-out: beta t1/2 (converted)
[24] = AUC (0 to infinity) in Sprague-Dawley rat at 1 mg/kg, iv; format: ADME, organism-based; design: dose 1 mg/kg, time infinity, route intravenous; conditions: in vivo
[25] = Half life in Sprague-Dawley rat at 1 mg/kg, iv; format: ADME, organism-based; conditions: in vivo
[26] = Volume of distribution at steady state in Sprague-Dawley rat at 1 mg/kg, iv; format: ADME, organism-based; conditions: in vivo, read-out: Vdss
[27] = AUC (0 to infinity) in Sprague-Dawley rat at 5 mg/kg, po; format: ADME, organism-based; design: dose 5 mg/kg, route oral, time infinity; conditions: in vivo
[28] = biological target: Voltage-gated inwardly rectifying potassium channel KCNH2 (Homo sapiens, UniProt Q12809); experiment: Inhibition of human ERG
Voltage-gated inwardly rectifying potassium channel KCNH2, sequence (Q12809 whole entry): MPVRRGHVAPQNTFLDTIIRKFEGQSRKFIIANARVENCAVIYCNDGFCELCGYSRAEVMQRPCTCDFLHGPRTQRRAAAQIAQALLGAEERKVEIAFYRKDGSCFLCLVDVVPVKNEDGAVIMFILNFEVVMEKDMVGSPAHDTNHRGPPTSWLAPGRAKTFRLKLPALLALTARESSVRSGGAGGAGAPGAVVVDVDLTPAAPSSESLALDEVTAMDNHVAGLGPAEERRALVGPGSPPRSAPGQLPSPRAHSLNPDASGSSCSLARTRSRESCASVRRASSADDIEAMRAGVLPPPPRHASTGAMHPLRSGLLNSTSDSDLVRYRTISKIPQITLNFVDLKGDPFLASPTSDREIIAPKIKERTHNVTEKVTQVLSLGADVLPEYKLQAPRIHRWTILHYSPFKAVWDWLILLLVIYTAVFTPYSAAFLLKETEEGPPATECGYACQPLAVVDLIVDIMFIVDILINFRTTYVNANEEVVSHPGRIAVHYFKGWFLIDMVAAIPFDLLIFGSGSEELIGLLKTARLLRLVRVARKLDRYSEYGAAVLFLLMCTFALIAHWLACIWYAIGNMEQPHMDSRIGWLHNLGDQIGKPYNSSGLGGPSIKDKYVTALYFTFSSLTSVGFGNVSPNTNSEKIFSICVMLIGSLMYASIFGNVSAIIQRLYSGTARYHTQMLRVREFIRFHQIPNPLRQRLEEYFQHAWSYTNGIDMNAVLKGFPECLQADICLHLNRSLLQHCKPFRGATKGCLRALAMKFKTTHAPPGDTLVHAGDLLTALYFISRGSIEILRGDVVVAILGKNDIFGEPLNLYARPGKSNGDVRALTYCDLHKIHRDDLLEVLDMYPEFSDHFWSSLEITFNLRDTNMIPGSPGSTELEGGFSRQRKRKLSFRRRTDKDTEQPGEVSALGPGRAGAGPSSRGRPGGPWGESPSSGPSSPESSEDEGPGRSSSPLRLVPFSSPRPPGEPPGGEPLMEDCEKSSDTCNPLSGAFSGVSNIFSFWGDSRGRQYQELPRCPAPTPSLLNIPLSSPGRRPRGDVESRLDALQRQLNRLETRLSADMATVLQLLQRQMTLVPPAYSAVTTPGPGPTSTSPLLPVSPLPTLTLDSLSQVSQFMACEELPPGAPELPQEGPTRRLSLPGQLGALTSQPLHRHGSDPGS

Cytochrome P450 2D6, sequence (P10635 whole entry): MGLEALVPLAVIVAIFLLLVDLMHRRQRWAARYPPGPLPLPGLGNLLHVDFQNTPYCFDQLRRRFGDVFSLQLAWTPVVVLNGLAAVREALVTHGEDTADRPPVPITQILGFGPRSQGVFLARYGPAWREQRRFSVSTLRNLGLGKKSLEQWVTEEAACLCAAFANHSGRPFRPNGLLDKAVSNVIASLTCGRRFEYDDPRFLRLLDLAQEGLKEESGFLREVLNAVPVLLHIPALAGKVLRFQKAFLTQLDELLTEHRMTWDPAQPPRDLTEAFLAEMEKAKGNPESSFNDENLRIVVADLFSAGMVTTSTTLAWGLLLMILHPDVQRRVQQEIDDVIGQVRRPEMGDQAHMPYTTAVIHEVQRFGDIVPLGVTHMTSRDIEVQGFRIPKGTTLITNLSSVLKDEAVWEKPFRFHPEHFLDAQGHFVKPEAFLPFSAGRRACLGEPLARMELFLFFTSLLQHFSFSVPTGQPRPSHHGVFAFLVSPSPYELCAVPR
Cytochrome P450 2C19, sequence (P33261 whole entry): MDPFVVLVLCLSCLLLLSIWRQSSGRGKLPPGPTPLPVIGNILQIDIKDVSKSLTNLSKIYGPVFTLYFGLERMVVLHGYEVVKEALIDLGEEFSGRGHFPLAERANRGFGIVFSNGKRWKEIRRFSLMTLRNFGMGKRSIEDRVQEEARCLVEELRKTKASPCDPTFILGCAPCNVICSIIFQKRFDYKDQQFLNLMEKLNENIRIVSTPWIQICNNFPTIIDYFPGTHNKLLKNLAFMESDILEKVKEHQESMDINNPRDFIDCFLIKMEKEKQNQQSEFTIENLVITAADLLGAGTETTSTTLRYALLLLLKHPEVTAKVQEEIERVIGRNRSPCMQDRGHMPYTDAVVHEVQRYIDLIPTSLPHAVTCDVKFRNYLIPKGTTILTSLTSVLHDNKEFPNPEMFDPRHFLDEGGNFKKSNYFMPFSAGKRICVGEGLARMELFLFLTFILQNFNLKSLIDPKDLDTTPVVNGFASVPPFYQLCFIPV
Cytochrome P450 2C9, sequence (P11712 whole entry): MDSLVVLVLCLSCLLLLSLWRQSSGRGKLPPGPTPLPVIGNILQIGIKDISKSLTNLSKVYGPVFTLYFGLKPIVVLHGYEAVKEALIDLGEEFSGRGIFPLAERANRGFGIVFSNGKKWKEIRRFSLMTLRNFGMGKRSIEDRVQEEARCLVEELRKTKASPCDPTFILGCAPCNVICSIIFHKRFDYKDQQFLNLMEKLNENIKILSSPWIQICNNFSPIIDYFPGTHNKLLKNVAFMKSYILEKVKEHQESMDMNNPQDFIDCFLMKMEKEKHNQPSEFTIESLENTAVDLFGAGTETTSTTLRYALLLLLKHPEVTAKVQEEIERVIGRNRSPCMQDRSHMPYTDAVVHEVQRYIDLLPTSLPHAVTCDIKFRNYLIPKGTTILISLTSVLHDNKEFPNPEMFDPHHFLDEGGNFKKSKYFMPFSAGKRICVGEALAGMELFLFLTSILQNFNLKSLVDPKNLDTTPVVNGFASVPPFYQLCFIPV
Cytochrome P450 3A4, sequence (P08684 whole entry): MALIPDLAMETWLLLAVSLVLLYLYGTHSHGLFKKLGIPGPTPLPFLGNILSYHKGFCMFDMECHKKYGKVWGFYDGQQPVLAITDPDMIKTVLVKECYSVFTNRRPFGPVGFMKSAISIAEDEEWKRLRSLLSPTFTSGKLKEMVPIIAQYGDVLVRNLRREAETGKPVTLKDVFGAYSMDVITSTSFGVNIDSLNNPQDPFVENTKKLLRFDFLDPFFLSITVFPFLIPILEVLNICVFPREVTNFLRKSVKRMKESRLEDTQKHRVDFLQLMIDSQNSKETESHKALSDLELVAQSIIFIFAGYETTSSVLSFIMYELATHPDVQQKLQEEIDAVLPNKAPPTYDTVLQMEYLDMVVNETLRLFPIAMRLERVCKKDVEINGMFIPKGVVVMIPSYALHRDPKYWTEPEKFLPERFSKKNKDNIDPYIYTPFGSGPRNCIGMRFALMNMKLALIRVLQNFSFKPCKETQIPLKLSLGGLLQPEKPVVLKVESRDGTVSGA

INH (Cytochrome P450 2D6) [µM]	solubility thermodynamic at 10000 µM [1] [µM]	Emax at 16 h, 10 µM (PXR (NR1I2) [3]) [%]	half-life [6] [min]	INH (Cytochrome P450 2C19) [µM]	INH (Cytochrome P450 2C9) [µM]	INH (Cytochrome P450 1A2) [µM]	half-life [12] [min]	Emax at 16 h, 1 µM (PXR (NR1I2) [13]) [%]	INH (Cytochrome P450 2C8) [µM]	INH (Cytochrome P450 3A4) [µM]	Structure (SMILES)	also measured
> 10	< 1	34	27	> 10	3.2	> 10	44	21	1.8	> 10	CCC(C)(C)NS(=O)(=O)c1ccc(-c2sc(C(=O)N[C@H]3C[C@H](C(=O)O)C3)nc2CC2CCCCC2)c(Cl)c1C	solubility thermodynamic [2]: 59 µM (≈ 35.2 µg/mL); Tmax [4]: 48 min; Cmax [5]: 52 ng/mL; C0 [7]: 1410 ng/mL; clearance [8]: 98.8 mL/min/kg; Vd [9]: 2.1 L/kg; AUC(0-inf) [10]: 170 ng·h/mL; AUC(0-inf) [11]: 142 ng·h/mL; bioavailability [14]: 18%; half-life [15]: 24 min; half-life [16]: 186 min
> 10	6.6 (≈ 3.75 µg/mL)	178	101	> 10	> 10	> 10	73	101	3.5	> 10	CC(C)(C)NS(=O)(=O)c1ccc(-c2sc(C(=O)N[C@H]3C[C@H](C(=O)O)C3)nc2CC2CCCCC2)c(Cl)c1	Kd [17]: > 75 µM; C0 [18]: 2300 ng/mL; Tmax [19]: 48 min; Cmax [20]: 130 ng/mL; bioavailability [21]: 20%; clearance [22]: 107 mL/min/kg; half-life [23]: 126 min; AUC(0-inf) [24]: 162 ng·h/mL; half-life [25]: 30 min; Vd [26]: 2.3 L/kg; AUC(0-inf) [27]: 328 ng·h/mL
6.2	< 4	–	< 4	1.1	0.4	> 10	5.1	–	2.8	7.1	CC(C)(C)NS(=O)(=O)c1ccc(-c2sc(C(=O)NCCN3CCOCC3)nc2CC2CCCCC2)c2ccccc12	inhibition (INH) [28]: Not Active
